The nature of data set [1]: Rat pharmacokinetic studies, intramuscular administration. The class given is in vivo, male Sprague Dawley Rats. As to conditions: for AUC(0-inf): read-out: AUC0-inf (ng · h/mL) prodrug. The protocol:
The purpose of this study is to determine the pharmacokinetics of test compounds in plasma, following intramuscular administration to male Sprague Dawley Rats (n=3, unless otherwise specified).
The dose formulation of 400 mg base equivalents/ml in sesame oil+1% benzyl alcohol (unless otherwise specified) was administered by intramuscular injection. The dose volume was determined by the animals' body weight determined on the morning of dosing day.
Each collected blood sample was centrifuged for 4 minutes at 4° C. and 10000 rpm for plasma collection. Plasma was collected and transferred into a pre-labeled PP tube in dry ice at each time point and precipitated immediately using ACN at a ratio of 1:4 (plasma:ACN). Centrifuged again (10 minutes, 12000 rpm) and obtain the supernatant.
(§1) LC-MS/MS methods for the quantitative determination of test compound in biological matrix were developed. […] The sample analysis was performed concurrently with a set of calibration standards and two sets of QC samples using the LC-MS/MS method.
(§2) Plasma concentration versus time data was analyzed by non-compartmental approaches using the Phoenix WinNonlin 6.3 software program. Cmax, Tmax, T1/2, AUC(0-t), AUC(0-inf), MRT(0-t), MRT(0-inf) and graphs of plasma concentration versus time profile were prepared.

Data set [2] can be described thus: Dog pharmacokinetic studies, deep intramuscular administration. The class given is in vivo, Beagle dogs. The note with it: IM 48 mg/kg, Sesame oil + 1% Benzyl Alcohol; for half-life / AUC(0-inf): Beagle, dog, plasma, im, 48 mg/kg; for half-life: read-out: Half-life t1/2 (hour) prodrug (converted); for AUC(0-inf): read-out: AUC0-inf (ng · h/mL) prodrug. As for the experimental part:
The purpose of this study is to determine the pharmacokinetics of test compounds in plasma, following deep intramuscular administration to Beagle dogs (n=3, unless otherwise specified).
The dose formulation (concentration—400 mg base equivalents/ml in sesame oil+1% benzyl alcohol, unless otherwise specified) was administered via deep intramuscularly (unless otherwise specified). The injection vehicle was also dosed via deep intramuscular route (unless otherwise specified) on contralateral site of each animal at study initiation. The animals were sedated with Propofol at 6 mg/kg via IV administration. Following sedation hair was carefully removed from around the injection site and the area gently cleaned. Care will be taken to avoid irritating skin during shaving and cleaning the injection site. Then dogs will be dosed with deep IM administration. At least 2.5 cm depth from the surface into the central aspect of the quadriceps or biceps femoris muscle, by angling the needle toward the femur. If the needle hits the femur, simply draws back slightly and then inject. The dose volume will be determined by the animals' body weight collected on the morning of dosing day. For repeated administration, the injection sites may be rotated to minimize tissue injury.
Blood samples were collected from a peripheral vessel from restrained, non-sedated animals per sampling time point.
Approximately 0.8 mL blood will be collected at each time point.
Each collected blood sample was centrifuged for 4 minutes at 4° C. and 10000 rpm for plasma collection. Plasma was collected and transferred into a pre-labeled PP tube in dry ice at each time point and precipitated immediately using ACN at a ratio of 1:4 (plasma:ACN).
as §1, §2

A short description of data set [3]: Solubility determination in oil (Table 10). The note with it: thermodynamic from solid; for solubility / solubility at 24 h: 25 °C, oil or lipid, Heating Temp. 60 °C, Obs. Temp. 25 °C; for solubility: volumetric flask method; for solubility thermodynamic: 40 °C, water, Equilibrium solubility: Water, Heating Temp. 40 °C, Obs. Temp. 40 °C. As for the experimental part:
A known amount of test substance (˜40 mg) was weighed into the vial, 100 μL of oil was added and heated to 60° C. and then system was slurried to reach equilibrium. […] Extra oil was added into the vial once compound precipitated out and then the system was re-equilibrated at 1000 rpm at room temperature (25° C.). Final concentration was determined by HPLC method as described below in Table 6a and 6b.

The next data set concerns the target T1, DOR (Homo sapiens, UniProt P41143).
T1 construct: expressed in transfected cells
The data set can be described thus: Opioid receptor binding assay, DOR ([3H]-DADLE). The protocol: (§3) Receptor binding assays were performed to assess the ability of compounds to inhibit binding to radiolabeled ligand.
(§4) The stable cell lines were established and prepared cell membrane obtained using these cell lines.
(§5) 1) Transfer 1 μl of specified concentration compound to assay plate according to the plate map for nonspecific binding. Transfer 1 μl of DMSO to assay plate according to plate map for total binding. 2) Follow the plate map. Dispense 99 μl of membrane stocks into the plate. 3) Add 100 μl of radio ligand. 4) Seal the plates. Incubate at RT for 1 hour. 5) Soak the Unifilter-96 GF/C filter plates with 50 μl of 0.3% PEI per well for at least 0.5 hour at room temperature. 6) When binding assays are completed, filter the reaction mixture through GF/C plates using Perkin Elmer Filtermate Harvester, and then wash each plate for 4 times with cold wash buffer. 7) Dry the filter plates for 1 hour at 50 degrees. 8) After drying, seal the bottom of the filter plate wells using Perkin Elmer Unifilter-96 backing seal tape. Add 50 μl of Perkin Elmer Microscint 20 cocktail. Seal top of filter plates with Perkin Elmer TopSeal-A sealing film. 9) Count ^3H trapped on filter using Perkin Elmer MicroBeta2 Reader second day. 10) Analyze the data with GraphPad Prism 5. Calculate the “Inhibition [% Control]” using the equation: % Inh=(1−Background subtracted Assay value/Background subtracted HC value)*100.

The next data set concerns the target T2, KOR (Homo sapiens, UniProt P41145).
T2 construct: expressed in transfected cells
The data set is described as follows: Opioid receptor binding assay, KOR ([3H]Diprenorphine). As for the experimental part: as §3, §4, §5

The next data set has as its target T3, MOR (Homo sapiens, UniProt P35372).
T3 construct: expressed in transfected cells
The data set can be described thus: Opioid receptor binding assay, MOR ([3H]DAMGO). As for the experimental part:
as §3, §4, §5

[4] abbreviates: Solubility by volumetric flask method: Cottonseed oil.
Where [5] appears, read: Solubility by volumetric flask method: Sesame oil.
Setting [6] is: section 'Solubility by volumetric flask method'.
Setting [7] is: Approximate Solubility in Excipient: Cottonseed oil.
[8] abbreviates: Approximate Solubility in Excipient: Sesame oil.
Where [9] appears, read: male, Sprague Dawley, rat, plasma, intramuscular, 0.8 mg/kg.

The text below walks through data of patent US20190308988A1, “OPIOID RECEPTOR ANTAGONIST PRODRUGS” (Nirsum Laboratories, Inc., priority 2017, published 2019).

In brackets after ≈: the same amount, converted by molar mass. Where a name gives a salt, the structure may show the parent alone. A value given as a limit tells only on which side of the number the result lay.

T3 sequence (P35372 whole entry): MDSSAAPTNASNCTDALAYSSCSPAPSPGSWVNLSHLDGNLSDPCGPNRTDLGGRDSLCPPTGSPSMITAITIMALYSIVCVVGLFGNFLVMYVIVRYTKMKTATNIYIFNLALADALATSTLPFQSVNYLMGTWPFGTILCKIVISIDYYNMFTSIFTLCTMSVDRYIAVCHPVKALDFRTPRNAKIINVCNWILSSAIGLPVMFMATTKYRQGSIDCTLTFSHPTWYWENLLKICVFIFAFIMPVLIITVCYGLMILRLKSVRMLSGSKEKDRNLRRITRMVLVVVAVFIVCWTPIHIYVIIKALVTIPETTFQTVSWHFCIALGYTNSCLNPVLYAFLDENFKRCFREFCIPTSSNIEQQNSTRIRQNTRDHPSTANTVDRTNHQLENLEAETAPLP
T1 sequence (P41143 whole entry): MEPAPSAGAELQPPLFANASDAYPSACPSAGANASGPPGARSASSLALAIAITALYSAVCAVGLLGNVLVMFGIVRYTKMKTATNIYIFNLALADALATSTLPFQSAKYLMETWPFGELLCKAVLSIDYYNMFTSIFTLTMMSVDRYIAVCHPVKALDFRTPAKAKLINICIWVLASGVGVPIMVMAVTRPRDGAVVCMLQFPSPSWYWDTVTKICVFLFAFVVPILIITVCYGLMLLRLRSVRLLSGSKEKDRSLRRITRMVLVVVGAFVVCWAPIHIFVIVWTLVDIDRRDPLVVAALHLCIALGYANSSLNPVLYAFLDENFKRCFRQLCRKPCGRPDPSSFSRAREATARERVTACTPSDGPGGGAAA
T2 sequence (P41145 whole entry): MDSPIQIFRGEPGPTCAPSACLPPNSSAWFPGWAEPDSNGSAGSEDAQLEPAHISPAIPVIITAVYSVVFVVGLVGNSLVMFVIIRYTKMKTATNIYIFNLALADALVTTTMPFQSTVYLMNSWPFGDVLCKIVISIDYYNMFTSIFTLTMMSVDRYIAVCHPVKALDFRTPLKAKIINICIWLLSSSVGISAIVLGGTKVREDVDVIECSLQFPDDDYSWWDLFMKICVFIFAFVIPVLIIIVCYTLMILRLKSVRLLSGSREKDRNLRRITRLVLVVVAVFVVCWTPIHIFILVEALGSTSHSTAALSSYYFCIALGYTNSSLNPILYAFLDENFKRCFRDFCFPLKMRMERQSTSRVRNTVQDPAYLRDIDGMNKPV

Regarding `C=C1CC[C@@]2(O)C3Cc4ccc(OC(=O)CCCCCCCCCCC)c5c4[C@@]2(CCN3CC2CC2)[C@H]1O5` [Compound 59, (4aS,7aS,12bS)-3-(cyclopropylmethyl)-4a-hydroxy-7-methylene-2,3,4,4a,5,6,7,7a-octahydro-1H-4,12-methanobenzofuro[3,2-e]isoquinolin-9-yl dodecanoate, reference compound], the AUC(0-inf) in data set [1] (male, Sprague Dawley, rat, plasma, im, 17 mg/kg, Sesame oil + 1% Benzyl Alcohol) worked out at 10.4 ng·h/mL. In data set [1] (male, Sprague Dawley, rat, plasma, im, 17 mg/kg, Sesame oil + 1% Benzyl Alcohol, read-out: Half-life t1/2 (hour) prodrug (converted)), the half-life was 15.2 h.

Turning to `C=C1CC[C@@]2(O)C3Cc4ccc(OCOC(=O)OCCCCCCCCCC)c5c4[C@@]2(CCN3CC2CC2)[C@H]1O5` [Compound 35, (((4aS,7aS,12bS)-3-(cyclopropylmethyl)-4a-hydroxy-7-methylene-2,3,4,4a,5,6,7,7a-octahydro-1H-4,12-methanobenzofuro[3,2-e]isoquinolin-9-yl)oxy)methyl decyl carbonate], in data set [2], the half-life was 70 h, the “AUC0-inf (ng · h/mL) nalmefene or naltrexone” value is “None” and the “AUC0-inf (ng · h/mL) prodrug” value was “None”.

As a reminder, the solubility is how much of the substance goes into solution per volume. Higher therefore signals much dissolved substance. A word on the thermodynamic solubility: it is solubility found after equilibrating the solid with the medium. Regarding `CCCCCCCCCCCOC(=O)OCOc1ccc2c3c1O[C@H]1C(=O)CC[C@@]4(O)C(C2)N(CC2CC2)CC[C@]314` [Compound 4, (((4aS,7aR,12bS)-3-(cyclopropylmethyl)-4a-hydroxy-7-oxo-2,3,4,4a,5,6,7,7a-octahydro-1H-4,12-methanobenzofuro[3,2-e]isoquinolin-9-yl)oxy)methyl undecyl carbonate], the solubility is over 395 mg/mL in data set [3] (setting [4]) and over 400 mg/mL in data set [3] (setting [5]). In addition, the thermodynamic solubility in data set [3] (setting [6]) is under 0.001 mg/mL. The AUC(0-inf) in data set [2] was 829 ng·h/mL.

What is called IC50 is the concentration at which inhibition is half-maximal. Low values mean higher potency, high ones lower potency. For the molecule `C=C1CC[C@@]2(O)C3Cc4ccc(OCOC(=O)OCCCCCCCCCCCCCCCC)c5c4[C@@]2(CCN3CC2CC2)[C@H]1O5` [Compound 34, (((4aS,7aS,12bS)-3-(cyclopropylmethyl)-4a-hydroxy-7-methylene-2,3,4,4a,5,6,7,7a-octahydro-1H-4,12-methanobenzofuro[3,2-e]isoquinolin-9-yl)oxy)methyl hexadecyl carbonate], the values for the IC50 on DOR, on KOR and at MOR were over 10000 nM, 1770 nM and 12.5 nM, respectively. Besides, the solubility at 24 h is over 404 mg/mL in data set [3] (setting [7]) and over 405 mg/mL in data set [3] (setting [8]). The molecule further registered a thermodynamic solubility in data set [3] of under 0.001 mg/mL.

`C=C1CC[C@@]2(O)C3Cc4ccc(OCOC(=O)OCCCCCCCC/C=C/CCCCCCCC)c5c4[C@@]2(CCN3CC2CC2)[C@H]1O5` [Compound 1, (((4aS,7aS,12bS)-3-(cyclopropylmethyl)-4a-hydroxy-7-methylene-2,3,4,4a,5,6,7,7a-octahydro-1H-4,12-methanobenzofuro[3,2-e]isoquinolin-9-yl)oxy)methyl ((E)-octadec-9-en-1-yl) carbonate]: in data set [2], the AUC(0-inf) came out at 1040 ng·h/mL and the half-life was 261 h.

Consider `C=C1CC[C@@]2(O)C3Cc4ccc(OC(=O)OCCCCCCCCCCCCCCC)c5c4[C@@]2(CCN3CC2CC2)[C@H]1O5` [Compound 32, (4aS,7aS,12bS)-3-(cyclopropylmethyl)-4a-hydroxy-7-methylene-2,3,4,4a,5,6,7,7a-octahydro-1H-4,12-methanobenzofuro[3,2-e]isoquinolin-9-yl pentadecyl carbonate], for which the results for the IC50 on DOR, at KOR and at MOR were over 10000 nM, 2120 nM and 17.4 nM, respectively. The values for the solubility at 24 h in data set [3] (setting [7]) and in data set [3] (setting [8]) were over 396 mg/mL and over 410 mg/mL, respectively. The molecule also displayed a thermodynamic solubility in data set [3] of 0.0328 mg/mL (≈ 0.0552 mM).

In data set [1] (setting [9]), `C=C1CC[C@@]2(O)[C@H]3Cc4ccc(O)c5c4[C@@]2(CCN3CC2CC2)[C@H]1O5` [nalmefene HCL, reference compound] returned a concentration at 1 h of 29.4 ng/mL, a concentration at 2 h of 2.09 ng/mL, a concentration at 4 h of 0.212 ng/mL and a concentration at 8 h of 0.0178 ng/mL.

As for `C=C1CC[C@@]2(O)[C@H]3Cc4ccc(O)c5c4[C@@]2(CCN3CC2CC2)[C@H]1O5.Cl` [Nalmefene HCl - IR], in data set [1] (0.80 mg/kg, saline), the “AUC0-inf (ng · h/mL) nalmefene” value was determined as 66.0 ng·h/mL and the “Terminal Half-life t1/2 (hour) nalmefene” value worked out at 0.87 h.

In the case of `CCCCCCCC/C=C/CCCCCCCCOC(=O)OCOc1ccc2c3c1O[C@H]1C(=O)CC[C@@]4(O)C(C2)N(CC2CC2)CC[C@]314` [Compound 7, (((4aS,7aR,12bS)-3-(cyclopropylmethyl)-4a-hydroxy-7-oxo-2,3,4,4a,5,6,7,7a-octahydro-1H-4,12-methanobenzofuro[3,2-e]isoquinolin-9-yl)oxy)methyl ((E)-octadec-9-en-1-yl) carbonate], the AUC(0-inf) in data set [2] came to 610 ng·h/mL.

As for `C=C1CC[C@@]2(O)C3Cc4ccc(OC(=O)OCCCCCCCCCCC)c5c4[C@@]2(CCN3CC2CC2)[C@H]1O5` [Compound 3, (4aS,7aS,12bS)-3-(cyclopropylmethyl)-4a-hydroxy-7-methylene-2,3,4,4a,5,6,7,7a-octahydro-1H-4,12-methanobenzofuro[3,2-e]isoquinolin-9-yl undecyl carbonate], in data set [3] (setting [4]), the solubility is over 399 mg/mL. Further, the solubility in data set [3] (setting [5]) is over 401 mg/mL. Also, the thermodynamic solubility in data set [3] (setting [6]) was under 0.001 mg/mL. In addition, in data set [2], the AUC(0-inf) was found to be 360 ng·h/mL and the half-life is 63.1 h.

Consider `CCCCCCCCCCCCOC(=O)OCOc1ccc2c3c1O[C@H]1C(=O)CC[C@@]4(O)C(C2)N(CC2CC2)CC[C@]314` [Compound 29, (((4aS,7aR,12bS)-3-(cyclopropylmethyl)-4a-hydroxy-7-oxo-2,3,4,4a,5,6,7,7a-octahydro-1H-4,12-methanobenzofuro[3,2-e]isoquinolin-9-yl)oxy)methyl dodecyl carbonate], for which the solubility at 24 h was over 410 mg/mL in data set [3] (setting [7]) and over 416 mg/mL in data set [3] (setting [8]). In data set [3], this molecule gave a thermodynamic solubility of under 0.001 mg/mL. Further, in data set [1] (male, Sprague Dawley, rat, plasma, im, 165 mg/kg, Sesame oil + 1% Benzyl Alcohol), the AUC(0-inf) turned out to be 74.8 ng·h/mL.
